Tested on: Endogenous Huntingtin Protein
Experiment: Endogenous Huntingtin Protein Assay (ELISA-based MSD electrochemiluminescence)
Type: cell-based
Conditions: Table 2; MSD plates coated with MW1 (expanded polyglutamine) or MAB2166 capture antibody; "inactive" = result above the detection limit of the assay
Outline: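 MSD electrochemiluminescence sandwich ELISA: capture with MW1 (expanded polyQ) or MAB2166 at 1 µg/mL, samples incubated overnight at 4 °C. Detection by rabbit mAb #56565 then SULFO-TAG anti-rabbit antibody, each 0.25 µg/mL for 1 h at room temperature, read in buffer T on SI 6000 imager.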

| IC50 (nM) | IC50 [µM] | Compound |
| --- | --- | --- |
| inactive | – | Cc1ccc2oc(-c3ccc(-c4cnc(N5C[C@@H](C)N[C@@H](C)C5)nn4)c(O)c3)cc2n1 [Cpd 120, 2-{3-[(3R,5S)-3,5-dimethylpiperazin-1-yl]-1,2,4-triazin-6-yl}-5-(5-methylfuro[3,2-b]pyridin-2-yl)phenol] |
| – | 0.0056 | Cc1nc2c(C)cc(-c3ccc(-c4cnc(N5C[C@@H](C)N[C@@H](C)C5)nn4)c(O)c3)nn2n1 [Cpd 83, 2-{3-[(3R,5S)-3,5-dimethylpiperazin-1-yl]-1,2,4-triazin-6-yl}-5-(2,8-dimethyl[1,2,4]triazolo[1,5-b]pyridazin-6-yl)phenol] |
| – | 0.0132 | CC(C)(C)[C@H]1CN(c2ncc(-c3ccc(-c4cn[nH]c4)cc3O)nn2)CCN1 [Cpd 16, 2-{3-[(3S)-3-tert-butylpiperazin-1-yl]-1,2,4-triazin-6-yl}-5-(1H-pyrazol-4-yl)phenol] |
| – | 0.755 | CN1CCn2ncc(-c3ccc(-c4cnc(N5CCN[C@@H](C6CC6)C5)nn4)c(O)c3)c21 [Cpd 275, 2-{3-[(3S)-3-cyclopropylpiperazin-1-yl]-1,2,4-triazin-6-yl}-5-(1-methyl-2,3-dihydro-IH-imidazo[1,2-b]pyrazol-7-yl)phenol] |
| – | 0.0079 | Cc1nc2c(C)cc(-c3ccc(-c4cnc(N5CCN[C@@H](C(C)C)C5)nn4)c(O)c3)nn2n1 [Cpd 92, 5-(2,8-dimethyl[1,2,4]triazolo[1,5-b]pyridazin-6-yl)-2-{3-[(3S)-3-(propan-2-yl)piperazin-1-yl]-1,2,4-triazin-6-yl}phenol] |
| – | 0.0111 | C[C@@H]1CN(c2ncc(-c3ccc(-c4ccc5nn(C)nc5n4)cc3O)nn2)C[C@H](C)N1 [Cpd 201, 2-{3-[rac-(3R,5S)-3,5-dimethylpiperazin-1-yl]-1,2,4-triazin-6-yl}-5-(2-methyl-2H-[1,2,3]triazolo[4,5-b]pyridin-5-yl)phenol] |
| – | 0.0116 | C[C@@H]1CN(c2ncc(-c3ccc(-c4cnc5nn(C)nc5c4)cc3O)nn2)C[C@H](C)N1 [Cpd 197, 2-{3-[(3R,5S)-3,5-dimethylpiperazin-1-yl]-1,2,4-triazin-6-yl}-5-(2-methyl-2H-[1,2,3]triazolo[4,5-b]pyridin-6-yl)phenol] |
| – | 0.672 | Cc1cc(-c2cn[nH]c2)cc(O)c1-c1cnc(N2CCN[C@@H](C(C)C)C2)nn1 [Cpd 127, 3-methyl-2-{3-[(3S)-3-(propan-2-yl)piperazin-1-yl]-1,2,4-triazin-6-yl}-5-(1H-pyrazol-4-yl)phenol] |
| – | 1.44 | Oc1cc(-c2cn[nH]c2)ccc1-c1cnc(N2CCNC(c3ccccc3)C2)nn1 (stereo not shown) [Cpd 61, 2-[3-(3-phenylpiperazin-1-yl)-1,2,4-triazin-6-yl]-5-(1H-pyrazol-4-yl)phenol] |
| – | 0.0016 | Cn1cc2cc(-c3ccc(-c4cnc(N5CCNC(CO)C5)nn4)c(O)c3)cc(F)c2n1 (stereo not shown) [Cpd 65, 5-(7-fluoro-2-methyl-2H-indazol-5-yl)-2-{3-[3-(hydroxymethyl)piperazin-1-yl]-1,2,4-triazin-6-yl}phenol] |
| – | 0.0113 | COc1cc(-c2ccc(-c3cnc(N4C[C@@H](C)N[C@@H](C(C)C)C4)nn3)c(O)c2)ncn1 [Cpd 230, 5-(6-methoxypyrimidin-4-yl)-2-{3-[(3R,5S)-3-methyl-5-(propan-2-yl)piperazin-1-yl]-1,2,4-triazin-6-yl}phenol] |
| – | 0.0337 | Cc1nnn2cc(-c3ccc(-c4cnc(N5C[C@@H](C)N[C@@H](C)C5)nn4)c(O)c3)ccc12 [Cpd 206, 2-{3-[rac-(3R,5S)-3,5-dimethylpiperazin-1-yl]-1,2,4-triazin-6-yl}-5-(3-methyl[1,2,3]triazolo[1,5-a]pyridin-6-yl)phenol] |
| – | 0.0115 | Cc1nc(-c2ccc(-c3cnc(N4CCN[C@@H](C5CC5)C4)nn3)c(O)c2)ns1 [Cpd 245, 2-{3-[(3S)-3-cyclopropylpiperazin-1-yl]-1,2,4-triazin-6-yl}-5-(5-methyl-1,2,4-thiadiazol-3-yl)phenol] |
| – | 0.0059 | Cc1nc2nc(-c3ccc(-c4cnc(N5CCN[C@@H](C6CC6)C5)nn4)c(O)c3)nc(C)c2[nH]1 [Cpd 84, 2-{3-[(3S)-3-cyclopropylpiperazin-1-yl]-1,2,4-triazin-6-yl]-5-(6,8-dimethyl-7H-purin-2-yl)phenol] |
| – | 0.104 | C[C@@H]1CN(c2ncc(-c3ccc(-n4nccn4)cc3O)nn2)C[C@H](C2CCC2)N1 [Cpd 237, 2-{3-[(3S,5R)-3-cyclobutyl-5-methylpiperazin-1-yl]-1,2,4-triazin-6-yl}-5-(2H-1,2,3-triazol-2-yl)phenol] |
| – | 0.006 | Cc1nc2ccc(-c3ccc(-c4cnc(N5CCN[C@@H](C(C)C)C5)nn4)c(O)c3)cn2n1 [Cpd 85, 5-(2-methyl[1,2,4]triazolo[1,5-a]pyridin-6-yl)-2-{3-[(3S)-3-(propan-2-yl)piperazin-1-yl]-1,2,4-triazin-6-yl}phenol] |
| – | 0.0414 | CCC(C)C1CN(c2ncc(-c3ccc(-c4cn[nH]c4)cc3O)nn2)CCN1 (stereo not shown) [Cpd 33, 2-{3-[3-(butan-2-yl)piperazin-1-yl]-1,2,4-triazin-6-yl}-5-(1H-pyrazol-4-yl)phenol] |

| IC50 (nM) | IC50 [µM] | Compound |
| --- | --- | --- |
| – | 0.0276 | Cn1nc2cc(-c3cnc(-c4cnc(N5CCN[C@@H](C6CC6)C5)nn4)c(O)c3)cnc2n1 [Cpd 180, 2-{3-[(3S)-3-cyclopropylpiperazin-1-yl]-1,2,4-triazin-6-yl}-5-(2-methyl-2H-[1,2,3]triazolo[4,5-b]pyridin-6-yl)pyridin-3-ol] |
| – | 0.0073 | Cc1nc2cnc(-c3ccc(-c4cnc(N5CCN[C@@H](C(C)C)C5)nn4)c(O)c3)cn2n1 [Cpd 91, 5-(2-methyl[1,2,4]triazolo[1,5-a]pyrazin-6-yl)-2-{3-[(3S)-3-(propan-2-yl)piperazin-1-yl]-1,2,4-triazin-6-yl}phenol] |
| – | 0.0186 | COc1cc(-c2ccc(-c3cnc(N4CCN[C@@H](C5CC5)C4)nn3)c(O)c2)ccn1 [Cpd 251, 2-{3-[(3S)-3-cyclopropylpiperazin-1-yl]-1,2,4-triazin-6-yl]-5-(2-methoxypyridin-4-yl)phenol] |
| – | 0.0037 | Cc1cn2cc(-c3ccc(-c4cnc(N5C[C@@H](C)N[C@@H](C)C5)nn4)c(O)c3)cc(F)c2n1 [Cpd 66, 2-{3-[(3R,5S)-3,5-dimethylpiperazin-1-yl]-1,2,4-triazin-6-yl]-5-(8-fluoro-2-methylimidazo[1,2-a]pyridin-6-yl)phenol] |
| – | 0.0091 | Cc1ncc2cc(-c3ccc(-c4cnc(N5CCN[C@@H](C6CC6)C5)nn4)c(O)c3)ccn12 [Cpd 195, 2-{3-[(3S)-3-cyclopropylpiperazin-1-yl]-1,2,4-triazin-6-yl}-5-(3-methylimidazo[1,5-a]pyridin-7-yl)phenol] |
| – | 0.0182 | CC(C)[C@H]1CN(c2ncc(-c3ccc(-c4cn[nH]c4)cc3O)nn2)C[C@@H](C)N1 [Cpd 229, 2-{3-[(3R,5S)-3-methyl-5-(propan-2-yl)piperazin-1-yl]-1,2,4-triazin-6-yl}-5-(1H-pyrazol-4-yl)phenol] |
| – | 0.607 | Cn1nnc2cnc(-c3ccc(-c4cnc(N5CCN[C@@H](C6CC6)C5)nn4)c(O)c3)cc21 [Cpd 174, 2-{3-[(3S)-3-cyclopropylpiperazin-1-yl]-1,2,4-triazin-6-yl}-5-(1-methyl-1H-[1,2,3]triazolo[4,5-c]pyridin-6-yl)phenol] |
| – | 0.0068 | COc1cc(-c2ccc(-c3cnc(N4C[C@@H](C)N[C@@H](C)C4)nn3)c(O)c2)nn2nc(C)nc12 [Cpd 90, 2-{3-[(3R,5S)-3,5-dimethylpiperazin-1-yl]-1,2,4-triazin-6-yl}-5-(8-methoxy-2-methyl[1,2,4]triazolo[1,5-b]pyridazin-6-yl)phenol] |
| – | 0.0049 | CCN1CCN(c2ncc(-c3ccc(-c4cc(F)c5nc(C)cn5c4)cc3O)nn2)CC1 [Cpd 77, 2-[3-(4-ethylpiperazin-1-yl)-1,2,4-triazin-6-yl]-5-(8-fluoro-2-methylimidazo[1,2-a]pyridin-6-yl)phenol] |
| – | 0.0105 | Cn1cc2cc(-c3ccc(-c4cnc(N5CCN6CCC[C@H]6C5)nn4)c(O)c3)cc(F)c2n1 [Cpd 99, 5-(7-fluoro-2-methyl-2H-indazol-5-yl)-2-{3-[(8aS)-hexahydropyrrolo[1,2-a]pyrazin-2(1H)-yl]-1,2,4-triazin-6-yl]phenol] |
| – | 0.319 | C=C[C@H]1CN(c2ncc(-c3ccc(-c4cn[nH]c4)cc3O)nn2)C[C@@H](C)N1 [Cpd 249, 2-{3-[(3S,5R)-3-ethenyl-5-methylpiperazin-1-yl]-1,2,4-triazin-6-yl]-5-(1H-pyrazol-4-yl)phenol] |
| – | 0.993 | CC(C)[C@H]1CN(c2ncc(-c3ccc(-c4cnnn4C)cc3O)nn2)CCN1 [Cpd 261, 5-(1-methyl-1H-1,2,3-triazol-5-yl)-2-{3-[(3S)-3-(propan-2-yl)piperazin-1-yl]-1,2,4-triazin-6-yl}phenol] |
| – | 0.0124 | COc1cc(-c2ccc(-c3cnc(N4C[C@@H](C)N[C@@H](C5CC5)C4)nn3)c(O)c2)ccn1 [Cpd 256, 2-{3-[(3S,5R)-3-cyclopropyl-5-methylpiperazin-1-yl]-1,2,4-triazin-6-yl}-5-(2-methoxypyridin-4-yl)phenol] |
| – | 0.435 | COC[C@H]1CN(c2ncc(-c3ccc(-c4cn[nH]c4)cc3O)nn2)CCN1 [Cpd 53, 2-{3-[(3R)-3-(methoxymethyl)piperazin-1-yl]-1,2,4-triazin-6-yl}-5-(1H-pyrazol-4-yl)phenol] |
| – | 0.0208 | Cn1cc(-c2ccc(-c3cnc(N4CCN[C@@H](C(C)(C)C)C4)nn3)c(O)c2)cn1 [Cpd 21, 2-{3-[(3S)-3-tert-butylpiperazin-1-yl]-1,2,4-triazin-6-yl]-5-(1-methyl-1H-pyrazol-4-yl)phenol] |
| – | 0.201 | C[C@@H]1CN(c2ncc(-c3ccc(-c4cn[nH]c4)cc3O)nn2)C[C@H](C(C)(C)C)N1 [Cpd 247, 2-{3-[(3S,5R)-3-tert-butyl-5-methylpiperazin-1-yl]-1,2,4-triazin-6-yl]-5-(1H-pyrazol-4-yl)phenol] |
| – | 0.0883 | COc1cc(-c2ccc(-c3cnc(N4C[C@@H](C5CC5)N[C@@H](C)C4)nn3)c(O)c2)nc(OC)n1 [Cpd 220, 2-{3-[(3R,5S)-3-cyclopropyl-5-methylpiperazin-1-yl]-1,2,4-triazin-6-yl}-5-(2,6-dimethoxypyrimidin-4-yl)phenol] |

— patent US20230234942A1, “COMPOUNDS FOR TREATING HUNTINGTON'S DISEASE” (PTC Therapeutics, Inc., priority 2020, published 2023)
